Reference: patent US9428460B2, “N-[4-(quinolin-4-yloxy)cyclohexyl(methyl)](hetero)arylcarboxamides as androgen receptor antagonists, production and use thereof as medicinal products” (BAYER PHARMA AKTIENGESELLSCHAFT, priority 2012, dated 2016)

Tested on: LNCaP cells
Assay: Proliferation assay with LNCaP cells
Assay type: cell-based
Settings: Homo sapiens, 168 h, in the presence of 1×10^−10 M R1881, seven days, AlamarBlue, read-out: IC50 LNCaP cell proliferation
Description: LNCaP cells (Horoszewicz et al., in “Models for Prostate Cancer” (ed. G. P. Murphy), Alan R. Liss, New York 1981, p. 115-132; Horoszewicz et al., Cancer Res. 43: 1809-1818, 1983) were plated out at a density of 2000 cells per well of a 96-well cell culture plate in RMPI 1640 medium (F1275, Biochrom AG), which contained activated charcoal-treated calf serum (FCS Serum Gold, PAA Laboratories) at a concentration of 5% (v/v). Three days later the cells were treated with the test substances in concentrations from 1×10^−8 to 1×10^−10 M in the presence of 1×10^−10 M R1881. Cell proliferation was determined seven days later after incubation for 2 hours with AlamarBlue (DAL1100, Invitrogen) (Nakayama et al., J Immunol Methods, 204(2): 205-8, 1997). The fluorescence values obtained were normalized, wherein 100% corresponded to the effect of the unstimulated control (without R1881), and 0% corresponded to the effect of the stimulated control (R1881 plus DMSO instead of test substance). The IC50 value was determined by regression analysis based on a four-parameter equation (minimum, maximum, IC50, Hill coefficient; Y=Max+(Min−Max)/(1+(X/IC50)^Hill)).

IC50: 28 nM
SMILES: N#Cc1cccc2c(O[C@H]3CC[C@H](NC(=O)c4cccc(F)c4)CC3)ccnc12 [Example 23, N-{trans-4-[(8-cyanoquinolin-4-yl)oxy]cyclohexyl}-3-fluorobenzamide]
